≈ marks a conversion by molar mass, not a printed value.
Columns and labels:
[1] = Selectivity for cathepsin K over cathepsin S
[2] = Selectivity for cathepsin K over cathepsin L
[3] = Selectivity for cathepsin K over cathepsin B
[4] = system: Osteoclast; experiment: Inhibition of bone resorption in human osteoclast assessed as decrease in CTX-1 level at 100 uM; format: functional
[5] = Clearance in po dosed rat; format: ADME, organism-based; details: in vivo
[6] = system: Rattus norvegicus; experiment: Antiosteoporotic activity in rat assessed as increase in distal femoral metaphysis bone mineral density at 10 mg/kg BID for 28 days relative to control; format: functional
[7] = species on record: Homo sapiens; experiment: Plasma protein binding in human; details: read-out: PPB (converted)
[8] = system: Rattus norvegicus; experiment: Antiosteoporotic activity in rat assessed as increase in distal femoral metaphysis bone mineral density at 30 mg/kg BID for 28 days relative to control; format: functional
[9] = Half life in po dosed rat; format: ADME, organism-based; details: in vivo
[10] = system: Homo sapiens; experiment: Antiosteoporotic activity in postmenopausal woman with osteoporosis assessed as increase in femoral neck bone mineral density at 200 mg/kg BID for 12 months; format: functional
[11] = Clearance in po dosed dog; format: ADME, organism-based, Canis lupus familiaris; details: in vivo
[12] = system: Homo sapiens; experiment: Antiosteoporotic activity in postmenopausal woman with osteoporosis assessed as increase in hip bone mineral density at 200 mg/kg BID for 12 months; format: functional, Bone of hip region
[13] = system: Rhesus monkey; experiment: Antiosteoporotic activity in rhesus monkey assessed as decrease in bone resorption-associated urinary NTX-1 level at 15 mg/kg QD for 14 days; format: functional, Macaca mulatta, Urine; design: scale not given: the % may be the effect or the level left
[14] = system: Homo sapiens; experiment: Antiosteoporotic activity in postmenopausal woman with osteoporosis assessed as increase in lumbar spine bone mineral density at 200 mg/kg BID for 12 months; format: functional
[15] = Selectivity for integrin alphaVbeta3 over integrin alphaVbeta5
[16] = system: MC3T3-E1; experiment: Increase in ALP mRNA expression in mouse MC3T3-E1 cells at 30 uM relative to control; format: functional
[17] = system: MC3T3-E1; experiment: Increase in octeocalcin mRNA expression in mouse MC3T3-E1 cells at 30 uM relative to control; format: functional
[18] = target: Integrin alpha-V/beta-3 (Homo sapiens, UniProt P05106+P06756)
[19] = target: Vitronectin (Homo sapiens) (UniProt P04004); experiment: Inhibition of vitronectin
[20] = target: Integrin alpha-IIb/beta-3 (Homo sapiens) (UniProt P05106+P08514); experiment: Inhibition of integrin alpha2Bbeta3; format: protein-complex assay
[21] = Half life in rat; format: ADME, organism-based; details: in vivo
[22] = Clearance in rat; format: ADME, organism-based; details: in vivo
[23] = Aqueous solubility of the compound; format: physicochemical; details: aqueous medium
[24] = Bioavailability in dog; format: ADME, organism-based, Canis lupus familiaris; details: in vivo
[25] = Clearance in dog; format: ADME, organism-based, Canis lupus familiaris; details: in vivo
[26] = system: Cynomolgus monkey; experiment: Antiosteoporotic activity in cynomolgus monkey assessed as decrease in bone resorption-associated urinary CTX-1 level at 10 mg/kg, po administered as single dose; format: functional; details: Macaca fascicularis, Urine
[27] = system: Cynomolgus monkey; experiment: Antiosteoporotic activity in cynomolgus monkey assessed as decrease in bone resorption-associated serum CTX-1 level at 10 mg/kg, po administered 5X a day; format: functional; details: Macaca fascicularis
[28] = system: Cynomolgus monkey; experiment: Antiosteoporotic activity in cynomolgus monkey assessed as increase in lumbar vertebrae bone strength at 30 mg/kg administered daily for 1 year; format: functional, Macaca fascicularis, Lumbar vertebra
[29] = system: Cynomolgus monkey; experiment: Antiosteoporotic activity in cynomolgus monkey assessed as increase in lumbar vertebrae bone strength at 1000 mg/kg administered daily for 1 year; format: functional, Macaca fascicularis, Lumbar vertebra
[30] = system: Cynomolgus monkey; experiment: Antiosteoporotic activity in cynomolgus monkey assessed as decrease in bone resorption-associated serum CTX-1 level at 10 mg/kg, po administered as single dose; format: functional; details: Macaca fascicularis
[31] = system: Cynomolgus monkey; experiment: Antiosteoporotic activity in cynomolgus monkey assessed as decrease in bone resorption-associated urinary CTX-1 level at 10 mg/kg, po administered 5X a day; format: functional; details: Macaca fascicularis, Urine
[32] = system: Homo sapiens; experiment: Antiosteoporotic activity in men with osteoporosis assessed as decrease in bone resorption-associated serum CTX-1 level at 250 mg/kg after 10 to 14 days; format: functional, organism-based; design: dose 250 mg/kg
[33] = target: Parathyroid hormone/parathyroid hormone-related peptide receptor (Homo sapiens, UniProt Q03431)
[34] = target: Extracellular calcium-sensing receptor (Bos taurus, UniProt P35384); experiment: Inhibition of CaSR in bovine parathyroid cells assessed as increase in PTH level; format: cell-based
[35] = system: Homo sapiens; experiment: Induction of bone formation in postmenopausal woman assessed as increase in osteocalcin level at […] after 28 days relative to placebo control; format: functional
[36] = system: Rattus norvegicus; experiment: Elevated PTH levels in ovariectomised rats as Cmax after 30 mg/kg oral dose; format: functional, organism-based; design: dose 30 mg/kg
[37] = system: Homo sapiens; experiment: Induction of bone formation in postmenopausal woman assessed as increase in ALP level at […] after 28 days relative to placebo control; format: functional
[38] = system: Rattus norvegicus; experiment: Elevated PTH levels in ovariectomised rats as Cmax after 120 mg/kg oral dose; format: functional, organism-based; design: dose 120 mg/kg
[39] = system: Homo sapiens; experiment: Induction of bone formation in postmenopausal woman assessed as increase in PINP level at […] after 28 days relative to placebo control; format: functional
[40] = system: Rattus norvegicus; experiment: Elevated PTH levels in ovariectomised rats as Cmax after 60 mg/kg oral dose; format: functional, organism-based; design: dose 60 mg/kg
[41] = Induction of osteogenesis in mouse calvarial cells assessed as increase in total bone area at 10 nM; format: functional, Calvarial cell
[42] = Bioavailability in rat; format: ADME, organism-based; details: in vivo
[43] = system: Homo sapiens; experiment: Antiosteoporotic activity in patient with osteoporosis assessed as increase in hip bone mineral density at 50 mg/kg, po administered weekly for 24 months relative to placebo control; format: functional, Bone of hip region
[44] = Selectivity for cathepsin K over cathepsin F
[45] = system: Homo sapiens; experiment: Antiosteoporotic activity in patient with osteoporosis assessed as increase in lumbar spine bone mineral density at 50 mg/kg, po administered weekly for 24 months relative to placebo control; format: functional
[46] = Selectivity for cathepsin K over cathepsin V
[47] = Selectivity for cathepsin K over cathepsin H
[48] = target: T1, Extracellular calcium-sensing receptor (Homo sapiens, UniProt P41180)
T1 sequence (P41180 whole entry): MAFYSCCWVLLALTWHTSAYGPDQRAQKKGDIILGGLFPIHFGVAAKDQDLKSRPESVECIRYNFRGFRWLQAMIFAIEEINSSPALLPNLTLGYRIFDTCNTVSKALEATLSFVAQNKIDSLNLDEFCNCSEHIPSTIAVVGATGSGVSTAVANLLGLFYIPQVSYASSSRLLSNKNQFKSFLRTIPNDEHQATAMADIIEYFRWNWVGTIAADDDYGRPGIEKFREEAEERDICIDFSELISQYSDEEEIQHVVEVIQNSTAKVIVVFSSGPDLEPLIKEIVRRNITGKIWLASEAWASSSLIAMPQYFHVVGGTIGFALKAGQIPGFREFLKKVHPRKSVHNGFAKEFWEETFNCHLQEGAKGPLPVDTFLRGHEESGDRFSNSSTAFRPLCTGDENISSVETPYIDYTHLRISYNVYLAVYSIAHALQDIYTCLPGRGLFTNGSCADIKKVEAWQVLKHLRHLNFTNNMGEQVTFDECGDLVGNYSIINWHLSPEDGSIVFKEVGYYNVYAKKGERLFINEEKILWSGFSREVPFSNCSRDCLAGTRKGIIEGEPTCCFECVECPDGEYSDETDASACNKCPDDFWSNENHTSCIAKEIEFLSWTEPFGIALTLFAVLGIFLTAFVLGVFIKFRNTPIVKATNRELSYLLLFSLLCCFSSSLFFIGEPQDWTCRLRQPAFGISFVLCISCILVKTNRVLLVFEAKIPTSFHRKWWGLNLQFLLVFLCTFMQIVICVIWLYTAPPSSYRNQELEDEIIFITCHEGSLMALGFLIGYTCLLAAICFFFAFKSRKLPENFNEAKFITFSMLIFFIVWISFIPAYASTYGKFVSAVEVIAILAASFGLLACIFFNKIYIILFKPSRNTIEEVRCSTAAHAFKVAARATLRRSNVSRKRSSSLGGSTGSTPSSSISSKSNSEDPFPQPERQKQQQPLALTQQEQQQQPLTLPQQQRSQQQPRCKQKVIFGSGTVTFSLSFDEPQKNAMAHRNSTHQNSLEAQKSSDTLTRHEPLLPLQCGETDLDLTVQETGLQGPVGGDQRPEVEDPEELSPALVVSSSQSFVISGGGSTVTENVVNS

[49] = Oral bioavailability in rat; format: ADME, organism-based; details: in vivo
[50] = target: Prostaglandin E2 receptor EP3 subtype (Mus musculus, UniProt P30557); experiment: Binding affinity to mouse EP3 receptor by competitive binding assay
[51] = system: Rattus norvegicus; experiment: Induction of bone formation in ovariectomized rat assessed as trabecular bone mineral content at 3 ug/kg, sc BID for 11 weeks (RVb = 200 mg/cm3); format: functional, Trabecula
[52] = target: Prostaglandin E2 receptor EP4 subtype (Mus musculus, UniProt P32240); experiment: Agonist activity at mouse EP4 receptor expressed in CHO cells assessed as cAMP production; format: functional, cell-based
[53] = system: Mus musculus; experiment: Induction of bone formation in mouse assessed as increase in bone mineral content at 300 ug/kg administered into dorsal muscle pouch relative to control; format: functional, Muscle tissue
[54] = Cmax in rat at 50 mg/kg, po; format: ADME, organism-based; design: dose 50 mg/kg, route oral; details: in vivo
[55] = target: Cathepsin K (Rattus norvegicus, UniProt O35186); experiment: Inhibition of rat cathepsin K
[56] = AUC in rat at 50 mg/kg, po; format: ADME, organism-based; design: dose 50 mg/kg, route oral; details: plasma

Chain of Prostaglandin E2 receptor EP4 subtype (P32240 whole entry): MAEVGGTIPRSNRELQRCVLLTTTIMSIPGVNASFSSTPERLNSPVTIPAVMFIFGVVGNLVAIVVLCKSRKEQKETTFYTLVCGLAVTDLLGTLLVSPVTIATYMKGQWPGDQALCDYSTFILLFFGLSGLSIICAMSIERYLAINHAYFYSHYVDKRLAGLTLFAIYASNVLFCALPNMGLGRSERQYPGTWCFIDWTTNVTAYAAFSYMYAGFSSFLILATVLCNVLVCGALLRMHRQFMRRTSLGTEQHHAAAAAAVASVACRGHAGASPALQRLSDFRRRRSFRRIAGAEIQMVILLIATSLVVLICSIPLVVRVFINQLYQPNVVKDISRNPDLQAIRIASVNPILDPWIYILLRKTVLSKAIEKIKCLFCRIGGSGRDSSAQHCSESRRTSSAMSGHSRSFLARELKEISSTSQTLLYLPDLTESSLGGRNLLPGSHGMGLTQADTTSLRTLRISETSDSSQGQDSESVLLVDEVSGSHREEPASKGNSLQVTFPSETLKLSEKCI
Chain of Cathepsin K (O35186 whole entry): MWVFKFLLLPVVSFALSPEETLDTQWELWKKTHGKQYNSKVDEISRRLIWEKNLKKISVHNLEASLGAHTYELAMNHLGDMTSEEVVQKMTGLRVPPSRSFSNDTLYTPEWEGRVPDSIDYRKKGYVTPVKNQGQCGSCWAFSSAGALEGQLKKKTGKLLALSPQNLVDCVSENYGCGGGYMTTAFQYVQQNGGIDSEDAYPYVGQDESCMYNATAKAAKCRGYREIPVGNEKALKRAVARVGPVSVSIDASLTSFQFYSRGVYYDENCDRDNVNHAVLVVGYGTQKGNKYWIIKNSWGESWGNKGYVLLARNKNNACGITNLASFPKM
Chain of Extracellular calcium-sensing receptor (Bos taurus, UniProt P35384) (P35384 whole entry): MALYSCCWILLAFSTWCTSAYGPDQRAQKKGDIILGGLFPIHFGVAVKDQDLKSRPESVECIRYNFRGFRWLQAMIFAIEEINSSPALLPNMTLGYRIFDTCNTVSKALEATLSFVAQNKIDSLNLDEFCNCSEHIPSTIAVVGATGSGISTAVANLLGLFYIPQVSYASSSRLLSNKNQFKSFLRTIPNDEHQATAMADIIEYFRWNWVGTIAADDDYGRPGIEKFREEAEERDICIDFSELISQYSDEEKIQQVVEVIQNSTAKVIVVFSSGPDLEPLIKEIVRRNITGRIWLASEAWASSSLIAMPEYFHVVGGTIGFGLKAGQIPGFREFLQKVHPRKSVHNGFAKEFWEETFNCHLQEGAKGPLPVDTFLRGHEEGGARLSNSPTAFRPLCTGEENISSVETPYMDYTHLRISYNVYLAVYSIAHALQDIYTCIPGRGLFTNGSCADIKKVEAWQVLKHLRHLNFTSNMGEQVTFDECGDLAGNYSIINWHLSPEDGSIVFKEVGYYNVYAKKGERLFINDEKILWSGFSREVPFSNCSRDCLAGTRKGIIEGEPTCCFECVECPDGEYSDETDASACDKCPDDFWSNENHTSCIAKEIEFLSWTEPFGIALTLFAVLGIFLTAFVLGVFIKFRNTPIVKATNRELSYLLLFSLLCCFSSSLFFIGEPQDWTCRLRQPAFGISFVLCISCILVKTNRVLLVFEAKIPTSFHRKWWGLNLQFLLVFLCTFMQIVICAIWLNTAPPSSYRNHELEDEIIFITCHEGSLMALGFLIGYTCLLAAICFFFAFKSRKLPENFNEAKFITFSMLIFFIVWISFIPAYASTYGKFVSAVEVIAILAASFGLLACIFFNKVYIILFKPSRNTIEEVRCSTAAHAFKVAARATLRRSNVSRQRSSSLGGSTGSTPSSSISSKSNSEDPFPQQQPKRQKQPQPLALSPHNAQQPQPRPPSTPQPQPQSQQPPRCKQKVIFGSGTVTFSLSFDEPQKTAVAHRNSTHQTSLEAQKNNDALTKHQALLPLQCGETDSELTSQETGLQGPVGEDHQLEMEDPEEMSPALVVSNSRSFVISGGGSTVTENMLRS
Chain of Vitronectin (Homo sapiens) (P04004 whole entry): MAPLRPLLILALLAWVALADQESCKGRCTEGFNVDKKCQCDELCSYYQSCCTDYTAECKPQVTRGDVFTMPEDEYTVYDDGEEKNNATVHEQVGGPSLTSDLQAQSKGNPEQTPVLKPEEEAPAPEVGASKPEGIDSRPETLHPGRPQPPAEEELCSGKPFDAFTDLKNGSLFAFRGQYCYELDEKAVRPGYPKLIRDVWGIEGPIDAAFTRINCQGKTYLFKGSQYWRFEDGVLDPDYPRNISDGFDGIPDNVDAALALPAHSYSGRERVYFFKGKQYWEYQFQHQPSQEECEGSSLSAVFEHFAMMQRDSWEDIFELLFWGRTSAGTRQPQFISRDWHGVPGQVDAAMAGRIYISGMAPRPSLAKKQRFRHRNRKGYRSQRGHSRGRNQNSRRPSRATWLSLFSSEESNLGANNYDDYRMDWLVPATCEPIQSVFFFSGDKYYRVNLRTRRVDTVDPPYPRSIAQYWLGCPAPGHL
Chain of Parathyroid hormone/parathyroid hormone-related peptide receptor (Q03431 whole entry): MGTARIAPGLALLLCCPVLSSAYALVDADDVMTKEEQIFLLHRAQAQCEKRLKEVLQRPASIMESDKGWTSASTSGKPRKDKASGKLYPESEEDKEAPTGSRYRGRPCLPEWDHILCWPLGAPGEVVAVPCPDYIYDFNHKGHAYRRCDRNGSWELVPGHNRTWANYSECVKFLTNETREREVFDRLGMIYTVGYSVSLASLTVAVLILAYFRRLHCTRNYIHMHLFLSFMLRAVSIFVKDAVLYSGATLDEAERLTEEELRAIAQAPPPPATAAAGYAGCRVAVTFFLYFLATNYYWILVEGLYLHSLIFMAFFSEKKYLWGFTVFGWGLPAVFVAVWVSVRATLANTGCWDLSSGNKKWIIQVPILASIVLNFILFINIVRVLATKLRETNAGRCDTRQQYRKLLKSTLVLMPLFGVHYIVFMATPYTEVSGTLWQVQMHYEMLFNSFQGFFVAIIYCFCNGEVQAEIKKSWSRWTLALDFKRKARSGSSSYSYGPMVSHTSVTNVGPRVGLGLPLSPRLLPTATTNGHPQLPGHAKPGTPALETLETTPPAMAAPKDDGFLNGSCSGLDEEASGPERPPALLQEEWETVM
Chain of Prostaglandin E2 receptor EP3 subtype (P30557 whole entry): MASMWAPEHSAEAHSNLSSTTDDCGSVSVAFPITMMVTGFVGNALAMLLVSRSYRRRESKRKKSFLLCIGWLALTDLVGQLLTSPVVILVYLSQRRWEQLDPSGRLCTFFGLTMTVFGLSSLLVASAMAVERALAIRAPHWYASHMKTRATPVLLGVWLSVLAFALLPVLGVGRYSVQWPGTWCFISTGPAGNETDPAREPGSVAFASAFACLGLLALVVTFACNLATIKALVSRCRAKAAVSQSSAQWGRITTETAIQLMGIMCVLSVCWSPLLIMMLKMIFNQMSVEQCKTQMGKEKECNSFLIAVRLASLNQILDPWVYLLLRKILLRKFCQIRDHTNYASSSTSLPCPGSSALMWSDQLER

## CC(C)C[C@H](NC(=O)c1ccc(C(C)(C)C)cc1)C(=O)N1CC[C@@H]2[C@H]1C(=O)CN2C(=O)c1ccccc1
[1]
  Selectivity ratio: > 446
[2]
  Selectivity ratio: > 347
[3]
  Selectivity ratio: > 990
[4]
  inhibition at 100 µM: 75%

## COc1ccc([C@H](CC(=O)O)N2CCN(CCCc3ccc4c(n3)NCCC4)C2=O)cn1
[5]
  CL/F: 47 mL/min/kg
[6]
  Activity: 8.9%
[7]
  fraction unbound: 0.12
[8]
  Activity: 12.8%
[9]
  half-life: 180 min
[10]
  Activity: 2.4%
[11]
  CL/F: 6.4 mL/min/kg
[12]
  Activity: 1.7%
[13]
  Activity: 39%
[14]
  Activity: 3.5%
[15]
  Selectivity ratio: 125

## C/C(=C\Cc1c(O)cc2occ(-c3ccc(O)cc3)c(=O)c2c1O)CO [GLABRISOFLAVONE]
[16]
  Activity: 58%
[17]
  Activity: 58%

## COc1cc(C(=O)NC[C@H](NS(=O)(=O)c2ccccc2)C(=O)O)ccc1N1CCC(NC2=NCCCN2)CC1
[18]
  IC50: 0.19 nM
[19]
  INH: 110 nM
[20]
  INH: 0.44 nM
[21]
  half-life: 46 min
[22]
  clearance: 47 mL/min/kg
[23]
  solubility: 1300 µg/mL (≈ 2330 µM)

## COc1ccc([C@@H](CCC[C@H](O)CCc2ccc3c(n2)NCCC3)CC(=O)O)cn1
[24]
  bioavailability: 60%
[7]
  fraction unbound: 0.07
[25]
  clearance: 2.5 mL/min/kg

## CC(C)C[C@H](NC(=O)c1cc2ccccc2o1)C(=O)N[C@H]1CC[C@@H](C)N(S(=O)(=O)c2ccccn2)CC1=O [RELACATIB]
[26]
  inhibition in vivo at 10 mg/kg: ≤ 57%
[27]
  inhibition in vivo at 10 mg/kg: ≤ 57%
[28]
  Activity: 42%
[29]
  Activity: 49%
[30]
  inhibition in vivo at 10 mg/kg: ≤ 57%
[31]
  inhibition in vivo at 10 mg/kg: ≤ 57%

## CCCCN1C(=O)C(=C(N)N)C(=O)N(CCCC)C1=O
[32]
  EC50: 1500 nM
[33]
  EC50: 3.2 µM

## CC(C)(Cc1ccc2ccccc2c1)NC[C@@H](O)COc1cccc(Cl)c1C#N
[34]
  EC50: 41 nM

## CC(C)(CC1Cc2ccccc2C1)NC[C@@H](O)COc1cc(CCC(=O)O)cc(F)c1F.Cl [RONACALERET HYDROCHLORIDE]
[35]
  Activity: 63%
[36]
  Cmax PTH: 33 pM
[37]
  Activity: 35%
[38]
  Cmax PTH: 68 pM
[39]
  Activity: 79%
[40]
  Cmax PTH: 66 pM

## O=S(=O)(NC1CCNCC1)c1cc(S(=O)(=O)c2ccccc2)ccc1C(F)(F)F
[41]
  Activity: 60%

## CC(C)(F)C[C@H](N[C@@H](c1ccc(-c2ccc(S(C)(=O)=O)cc2)cc1)C(F)(F)F)C(=O)NC1(C#N)CC1 [ODANACATIB]
[24]
  bioavailability: ≤ 100%
[1]
  Selectivity ratio: 300
[42]
  bioavailability: ≤ 38%
[43]
  Activity: 3.2%
[2]
  Selectivity ratio: 15000
[44]
  Selectivity ratio: 3980
[45]
  Activity: 5.5%
[3]
  Selectivity ratio: 5170
[46]
  Selectivity ratio: 3810
[47]
  Selectivity ratio: > 50000

## Cc1ccc(CC(C)(C)NC[C@@H](O)CO[C@H](C)c2ccccc2[C@@H]2C[C@@H]3C[C@H]2[C@H]2[C@H](C(=O)O)[C@@H]32)cc1F
[48]
  IC50: 25 nM
[49]
  bioavailability: 60%

## COCc1cccc(C[C@H](O)/C=C/[C@H]2[C@H](O)CC(=O)[C@@H]2CCSCCCC(=O)OC)c1 [RIVENPROST]
[50]
  Ki: 56 nM
[51]
  Activity: 378 mg/cm3
[52]
  EC50: 1.6 nM
[53]
  fold change (FC): 3

## CC[C@@H](CNc1ccc(OCC(=O)O)cc1)NC(=O)C1(Nc2cccc(-c3ccccc3)c2)CCCCC1
[1]
  Selectivity ratio: 2080
[54]
  Cmax: 9200 ng/mL
[55]
  IC50: 58 nM
[2]
  Selectivity ratio: > 4170
[3]
  Selectivity ratio: > 4170
[56]
  AUC: 104 µg·h/mL
